Assay [1] deals with T1, BAG3-BD (Homo sapiens, UniProt O95817).
T1 construct: the BAG3 domain (BAG3-BD) was procured from ARETA International S.r.l; purchased ARETA International S.r.l; (Gerenzano, Italy)
T1 sequence (O95817 421-498 limits assumed): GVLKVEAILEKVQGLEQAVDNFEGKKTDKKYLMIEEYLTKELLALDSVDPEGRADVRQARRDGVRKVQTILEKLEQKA
Put plainly: SPR assay on BAG domain of BAG3 (BAG3-BD). The assay is classed as binding. As to conditions: Biacore T200, 0 to 100 µM, 25 °C, 1:1 interaction model, read-out: BAG DOMAIN KD (µM) ± SD. Here is the method:
In this study, we employed SPR experiments to evaluate the interactions between synthesized compounds (1–14) and both the full-length BAG3 protein and its BAG domain. Only the compounds that successfully bound to the full-length BAG3 protein were tested for their interaction with the BAG domain. Protein immobilization was achieved using the amide coupling method, and the compounds were tested at ten different concentrations, ranging from 0 to 100 µM. A known binder of BAG3-BD, LK4 ((Z)-ethyl 2-(5-(3,4-dihydroxybenzylidene)-2,4-dioxothiazolidin-3yl)acetate), was used as a positive control. […] Compound 14 also bound the target but with slightly higher KD values, still within the micromolar range. The three identified compounds were further investigated to understand whether this binding induced an effect on BAG3 protein functions. The KD values reported in Table 1 for the known inhibitor LK4 differ from those in previous studies due to the use of a newer-generation instrument for the SPR experiments. The earlier experiments utilized the Biacore 3000, whereas the current study employed the Biacore T200. While ligand binding was confirmed in both sets of experiments, the slightly different KD values are attributed to the enhanced sensitivity of the Biacore T200.
Recombinant human BAG3 protein (Bcl2-associated athanogene 3) was sourced from Novus Biologicals (Littleton, CO, USA), while the BAG3 domain (BAG3-BD) was procured from ARETA International S.r.l. (Gerenzano, Italy). We utilized (Z)-ethyl 2-(5-(3,4-dihydroxybenzylidene)-2,4-dioxothiazolidin-3-yl)acetate (LK4), a known BAG3 inhibitor previously identified by our group. Surface Plasmon Resonance (SPR) spectroscopy was employed to assess the affinity of synthesized molecules for BAG3 and BAG-BD using a Biacore T200 optical biosensor equipped with CM5 sensor chips (Cytiva, Marlborough, MA, USA). BAG3 and BAG-BD were immobilized on the CM5 sensor chip using standard amine-coupling protocols. BAG3 protein (0.067 μg/μL in 10 mM CH3COONa, pH 4.5) was immobilized at a flow rate of 10 μL/min, resulting in a density of 14 kRU. The BAG3 domain (0.38 μg/μL in 10 mM CH3COONa, pH 4.5) was immobilized under similar conditions, achieving a density of 4 kRU. […]
Compounds 1–14 and LK4 were dissolved to 10 mM in 100% DMSO and then diluted 1:20 (v/v) in PBS-P buffer (0.2 M phosphate buffer, 27 mM KCl, 1.37 M NaCl, 0.5% surfactant P20) to achieve a final DMSO concentration of 5.0%. […] Changes in mass, reflected as resonance units (RU), were recorded to determine binding responses. KD values were calculated using Biaevaluation software 3.2 by globally fitting the double-referenced association and dissociation data to a 1:1 interaction model. […]

The test system of assay [2] is caspase 3. Put plainly: Caspase 3 determination by flow cytometry. The assay is classed as cell-based, human. Conditions: HeLa cells, 72 h, 50, 30 and 20 µM, vs control. On the procedure:
Furthermore, we investigated the expressions of caspases, key mediators of programmed cell death, in HeLa cells treated with compound 10 at the same concentrations used in the previous assays. […] To further confirm the pro-apoptotic mechanism induced by compound 10, Western blotting was performed to measure the expression and cleavage of caspase 3 [38, 39].
HeLa cells were seeded into 6-well plates (2.5 × 10^5 cells/well) and allowed to adhere for 24 h. The cells were then treated for 72 h with compound 10 at concentrations of 20, 30, and 50 µM, as well as with 0.1% DMSO negative (control), to assess caspase 3 and caspase 9 levels. After treatment, cells were collected, washed with PBS, and incubated at 4 °C first with a fixing buffer (containing 1% formaldehyde and 1% FBS in PBS) for 20 min, followed by permeabilization with fix perm solution (fixing buffer containing 0.1% Triton X-100) for 30 min. Next, the cells were incubated with anti-caspase 3 (1:500; SC-7272, Santa Cruz, CA, USA) and anti-caspase 9 (1:50; BS-0049R, Bioss Antibodies, Woburn, MA, USA) antibodies for 30 min at 4 °C. […] Cell fluorescence was then evaluated using a fluorescence-activated cell sorter (FACSscan, Becton Dickinson, Milan, Italy) and analyzed with Cell Quest software (4.0, Becton Dickinson, North Ryde, Australia). […]
Background: In flow cytometry, cells or beads pass a laser one at a time.

This note sets out measurements from article PMC11547576, “Identification of a New Promising BAG3 Modulator Featuring the Imidazopyridine Scaffold” (Molecules, 2024).

By Kd is commonly meant the constant that tells how readily two partners part at equilibrium.

In the case of `CC(C)Nc1c(-c2ccccc2Br)nc2ccc(Cl)cn12` [Compound 10, 2-(2-bromophenyl)-6-chloro-N-isopropylimidazo[1,2-a]pyridin-3-amine], the equilibrium dissociation constant (Kd) in assay [1] was 15.7 ± 1.44 µM. Besides, the “activation of caspase 3” value in assay [2] was “pronounced, dose-dependent activation”.
